Source: PubChem BioAssay AID2765 (Broad Institute, 2010)
Active and inactive are the calls of the source.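 How the source made its calls: active means half-maximal concentration for the rise in caspase light signal at or below ten times the top tested dose; inconclusive means flat fit between 30% and 70% activity, or unreliable curve fit; inactive means the rest.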

Tested on: MEF A1-2A-BIM cells, caspase 3/7 luminescence, 3 h
Assay: inducers of caspase signal in A1-dependent MEFs – cell-based, luminescence, retest, A1 inhibitor project, dose response (AID 2765)

Compound | EC50
CCS(=O)(=O)c1ncc(Cl)c(C(=O)Nc2ccc(C)cc2)n1 | > 35 µM (inactive)
O=C(COC(=O)c1ccccc1Br)NC1CCCCCCC1 | > 35 µM (inactive)
CCc1cccc(CC)c1NC(=O)C1CSC2(C)CCC(=O)N12 (configuration not stated) | > 35 µM (inactive)
CSc1ccc(CNC(=O)Cn2nc(C)c3c(C)n(-c4ccc(C)cc4)nc3c2=O)cc1 | > 35 µM (inactive)
CCn1c(Cl)c(C=O)s/c1=N\S(=O)(=O)c1ccccc1 | > 35 µM (inactive)
OCc1ccc(OCCCOc2cccc3cccnc23)cc1 | > 35 µM (inactive)
CCOC(=O)c1ccc(NS(=O)(=O)c2ccc3c(c2)CCCN3C(C)=O)cc1 | > 35 µM (inactive)
CCc1nnc(NC(=O)CSc2nc(-c3ccccc3)cc(-c3ccc(F)cc3)c2C#N)s1 | 24.2 µM
CCc1nn(-c2cc(Oc3cccc4ccccc34)nc(-c3ccccc3)n2)c(N)c1C#N | > 35 µM (inactive)
COc1ccc(CCNC(=O)C2CCCN2C(=O)Nc2ccc(Cl)cc2)cc1OC (configuration not stated) | > 35 µM (inactive)
COc1ccc2[nH]c(=O)c(CN(CC3CCCO3)C(=O)Nc3ccccc3)cc2c1 (configuration not stated) | > 35 µM (inactive)
Cc1ccc(NC(=O)CN(C)S(=O)(=O)c2cnc[nH]2)c(C)c1 | > 35 µM (inactive)
CCN(CC)c1ccc2c(c1)oc(=O)c1c(Cl)cc(=O)oc12 | > 35 µM (inactive)
O=C(NCc1ccc(/C=N\NC(=O)C(=O)Nc2ccccc2Br)o1)C(=O)Nc1ccccc1 | > 35 µM (inactive)
CCOC(=O)Nc1nc(-c2ccccc2)c(C(=O)c2ccccc2)s1 | > 35 µM (inactive)
COc1ccc(CC(=O)NCCN2CCOCC2)cc1 | > 35 µM (inactive)
COC(=O)c1c(NC(=O)C2CC(C)=C(C)CC2C(=O)O)sc2c1CCCCC2 (configuration not stated) | > 35 µM (inactive)
O=[N+]([O-])c1ccc(S(=O)(=O)N/N=C/c2ccsc2)cc1 | > 35 µM (inactive)
COC(=O)c1ccc(CNC(=O)C2CCC(=O)N(CCc3ccccc3)C2)cc1 (configuration not stated) | > 35 µM (inactive)
Cc1ccc2c(c1)C(=O)C(=O)N2Cc1ccc(Br)cc1 | > 35 µM (inactive)
CCCOC(=O)Nc1ccc([As](=O)(O)O)cc1NC(=O)OCCC | > 35 µM (inactive)
Cc1nc(SCc2nc3c([N+](=O)[O-])cccc3[nH]2)c2oc3ccccc3c2n1 | > 35 µM (inactive)
O=C(COC(=O)/C=C/c1cccc(Cl)c1Cl)Nc1ccc2[nH]c(=O)[nH]c2c1 | > 35 µM (inactive)
O=C(N=Nc1c(O)[nH]c2ccc([N+](=O)[O-])cc12)c1cc(-c2ccccc2Cl)nc2ccccc12 | > 35 µM (inactive)
COc1ccc(S(=O)(=O)N2CC(O)CC2C(=O)OCc2nc3sc(C)c(C)c3c(=O)[nH]2)cc1 (configuration not stated) | > 35 µM (inactive)

Compound | EC50
NC(=O)OCCCc1ccccc1 | > 35 µM (inactive)
CC(=O)Nc1ncnc2c1c(-c1ccc(Cl)cc1)nn2C(C)(C)C | > 35 µM (inactive)
O=C(/C=C/c1cccc(Cl)c1)c1ccc([N+](=O)[O-])o1 | > 35 µM (inactive)
Cc1cccc(/C=N/NC(=O)c2cc3c(s2)-c2ccccc2CC3)c1 | > 35 µM (inactive)
O=C(Nc1ccc2oc(-c3cccc(F)c3)nc2c1)c1ccccc1F | > 35 µM (inactive)
CN(CC(O)COC(c1ccccc1)c1ccccc1)C1CCCCC1 (configuration not stated) | > 35 µM (inactive)
COc1ccc(S(=O)(=O)Nc2ccccc2C(=O)NC2CC2)cc1NC(C)=O | > 35 µM (inactive)
N#C/C(=C\c1ccc(OCc2ccccc2)cc1)C(=O)Nc1nc2c(s1)CCN(Cc1ccccc1)C2 | > 35 µM (inactive)
CC(=O)c1cc(C#N)c(SCC(=O)Nc2nccs2)nc1C | > 35 µM (inactive)
Cc1cccc[n+]1CC(=O)c1ccccc1 | > 35 µM (inactive)
CCOCCCNC(=O)c1ccc2c(c1)N=C(CC)c1cc(Br)ccc1S2 | > 35 µM (inactive)
COCCCN(C(=O)Nc1ccccc1)C(C)c1ccncc1 (configuration not stated) | > 35 µM (inactive)
CCS(=O)(=O)c1ncc(Cl)c(C(=O)Nc2ccc(S(=O)(=O)N3CCCC(C)C3)cc2)n1 (configuration not stated) | > 35 µM (inactive)
O=C(O)CCN1C(=O)/C(=C\c2ccncc2)SC1=S | > 35 µM (inactive)
Cc1ccc(OC(=O)C2CCN(C(=O)c3ccccc3C)CC2)c(Br)c1 | > 35 µM (inactive)
O=C(CS(=O)c1ccc(C(F)(F)F)cc1[N+](=O)[O-])Oc1ccccc1 (configuration not stated) | > 35 µM (inactive)
CCOc1ccc(OCC(=O)N(CCC2=CCCCC2)c2c(N)n(Cc3ccccc3)c(=O)[nH]c2=O)cc1 | 19.1 µM
O=C(C1=NN[C@@H]2C(=O)N(Cc3ccccc3)C(=O)[C@H]12)c1ccc(F)cc1 | > 35 µM (inactive)
O=C(CCC(=O)N1CCN(c2ccccc2F)CC1)N1CCN(c2ccccc2)CC1 | > 35 µM (inactive)
CCN(CC)C(=O)CCCc1c[nH]c2ccccc12 | > 35 µM (inactive)
COC(=O)C1CSC(c2ccc(Cl)cc2)N1C(=O)c1ccccc1 (configuration not stated) | > 35 µM (inactive)
OC(CNCC1COc2ccccc2O1)COc1ccc(Cl)cc1 (configuration not stated) | > 35 µM (inactive)
O=C(NC1CCCCC1)c1cccc2c1C(=O)c1ccc(-c3ccc(OC(F)(F)F)cc3)cc1S2(=O)=O | 27.5 µM
Cc1ccc(C(C[N+](=O)[O-])c2c(C)[nH]n(-c3ccccc3)c2=O)cc1 (configuration not stated) | > 35 µM (inactive)
O=C(NCNC(=O)NC1C(=O)NC(=O)N1CO)NC1C(=O)NC(=O)N1CO (configuration not stated) | > 35 µM (inactive)

Compound | EC50
Cc1ccc(OCCC(=O)Nc2ccccc2C(=O)NC2CC2)cc1 | > 35 µM (inactive)
OC(COc1ccc2ccccc2c1Br)Cn1ccnc1 (configuration not stated) | > 35 µM (inactive)
Cc1cc(/C=C(/C#N)C(=O)O)c(C)n1-c1cccc2ccccc12 | > 35 µM (inactive)
CCc1cccc(N(CC(=O)NCc2ccc(F)cc2)C(=O)c2csnn2)c1 | > 35 µM (inactive)
CCOC(=O)C(C(=O)OCC)c1cc(Br)c2noc3c2c1C(=O)c1ccccc1-3 | > 35 µM (inactive)
Cc1nnc(SCC(=O)NN2C(=O)NC3(CCCCC3)C2=O)s1 | > 35 µM (inactive)
Cc1occc1-c1nnc(-c2cc([N+](=O)[O-])cc([N+](=O)[O-])c2)o1 | > 35 µM (inactive)
CN1CCc2c(sc3c2C(=O)NC(c2ccccn2)N3)C1 (configuration not stated) | > 35 µM (inactive)
CSc1cccc(NS(=O)(=O)c2cn(C)cn2)c1 | > 35 µM (inactive)
CN(C(=O)c1ccc(NC(=O)C2CCCN(C(=O)OC(C)(C)C)C2)cc1)C1CC1 (configuration not stated) | > 35 µM (inactive)
Cc1nc(NN)c2c3c(sc2n1)COC(C)(C)C3 | > 35 µM (inactive)
Cc1ccccc1OCCOC(=O)c1c(-c2ccccc2)noc1C | > 35 µM (inactive)
Cc1c(C(c2ccccc2O)c2c(C)n(C)n(-c3ccccc3)c2=O)c(=O)n(-c2ccccc2)n1C | > 35 µM (inactive)
COC(=O)C(C)Oc1cc(OC(C)C(=O)OC)c2c(-c3ccccc3)cc(=O)oc2c1 (configuration not stated) | > 35 µM (inactive)
CSC(SC)=C(C#N)C(=O)c1ccccc1 | > 35 µM (inactive)
Cc1ccc(/C=C/C(=O)Nc2sc(C)c(C)c2C(=O)OC(C)C)o1 | > 35 µM (inactive)
O=C(NCc1ccccc1)c1cncc(Br)c1 | > 35 µM (inactive)
Cc1cccc(NC(=O)CCC(=O)N/N=C/c2ccco2)c1C | > 35 µM (inactive)
CC(=O)c1cccc(CN2CCN(CCc3ccccc3)C(CCO)C2)c1 (configuration not stated) | > 35 µM (inactive)
CCc1nnc(NC(=O)c2ccc(NC(=O)C(C)C)cc2)s1 | > 35 µM (inactive)
O=C(NC(Cc1ccccc1)C(=O)N1CCCCCC1)c1ccccc1 (configuration not stated) | > 35 µM (inactive)
CC(C)[C@H]1CN=C2N(CCNC(=O)CCC3CCCCC3)[C@H](Cc3ccc(O)cc3)CN21 | > 35 µM (inactive)
Cc1nccc2c1[nH]c1ccccc12 | > 35 µM (inactive)
COc1cccc(CN(CC(=O)NC2CCCC2)C(=O)c2csnn2)c1 | > 35 µM (inactive)
O=C(NCc1cccnc1)[C@@H]1CC=C[C@@H]2CCN(Cc3ccccc3)C(=O)[C@@H]21 | > 35 µM (inactive)

Compound | EC50
O=C(Nc1nc2c(Br)cc(Br)cc2c(=O)s1)c1ccco1 | > 35 µM (inactive)
COc1cc(-c2cc(-c3ccccc3)nc(SCC(=O)Nc3nccs3)c2C#N)cc(OC)c1OC | > 35 µM (inactive)
Cc1c(CCCC(=O)O)sc(N)c1C(=O)c1cccc(C(F)(F)F)c1 | > 35 µM (inactive)
Cc1c(Nc2nc3ccccc3nc2NS(=O)(=O)c2cccc(Cl)c2)c(=O)n(-c2ccccc2)n1C | > 35 µM (inactive)
CSCCC(NS(=O)(=O)c1ccc(C)cc1)C(=O)NCCc1c[nH]c2ccccc12 (configuration not stated) | > 35 µM (inactive)
COc1ccc(NC(=O)CN2CCN(CC(=O)Nc3ccccc3Cl)CC2)cc1Cl | > 35 µM (inactive)
CC(=O)Nc1ccc(NC(=O)c2cc(C)nn2-c2ccccc2)cc1 | > 35 µM (inactive)
O=C(/C=C/c1ccc(Cl)c(Cl)c1)NC1=NCCS1 | > 35 µM (inactive)
CCN(CC)CCCN=C(C)c1c(O)n(-c2ccc(C)cc2)c(=O)[nH]c1=O | > 35 µM (inactive)
COc1ccc(CN2CCN(Cc3cc4ccccc4o3)CC2CCO)c(F)c1 (configuration not stated) | > 35 µM (inactive)
Cc1cccc(C)c1NC(=S)Nc1ccccc1C(=O)NCc1ccco1 | > 35 µM (inactive)
CCOC(=O)CC1=C(C(=O)OCC)C2(C(=O)Nc3ccccc32)C(C#N)=C(N)O1 (configuration not stated) | > 35 µM (inactive)
Cc1cccc(/C=C/C(=O)c2ccc([N+](=O)[O-])o2)c1 | > 35 µM (inactive)
CCOc1ccc(N2C(=O)CN=C2Nc2ccccc2F)cc1 | > 35 µM (inactive)
CCn1nnc(NC(=O)Cc2ccc(Cl)cc2)n1 | > 35 µM (inactive)
O=C(CN1C(=O)NC2(CCCCCC2)C1=O)Nc1cccc(F)c1 | > 35 µM (inactive)
Cc1ccc(S(=O)(=O)N2CCCC2)cc1C(=O)NCc1ccccc1CN1CCCC1 | > 35 µM (inactive)
Cc1c(C)c(C)c(C(=O)CCc2cccc(NC(=O)CCC(=O)O)c2)c(C)c1C | > 35 µM (inactive)
CCc1cccc(C)c1Nc1nc2ccccc2n2cnnc12 | > 35 µM (inactive)
O=C(CN1C(=O)c2ccccc2S1(=O)=O)NCCc1ccccc1 | > 35 µM (inactive)
O=C(N/C=N/OCc1ccc(Cl)cc1Cl)NOCc1ncc(C(F)(F)F)cc1Cl | > 35 µM (inactive)
Cc1cc(N2C(=O)CCC2=O)n(-c2ccccc2)n1 | > 35 µM (inactive)
